One data set deals with undifferentiated 02KM. In words: Tolerance of undifferentiated 02KM to 5AC. In kind it is cell-based, porcine. Here is the method:
5AC effects. 5AC exposure prior to, during, and following E2-mediated induction of ‘MyoDER’ was introduced to enable terminal-differentiation of 02KM from myocytes into refractive, filamentous myotubes. The murine C2C12 cell line was used as positive control to screen for optimal conditions for terminal differentiation by 02KM. […] 5AC, a small-molecule epigenetic modulator, was determined previously to enable skeletal muscle transcription in cell lines non-permissive to myogenesis. Moreover, 5AC exposure was further determined to enhance terminal differentiation by the C2C12 cell line.

For another data set, the system named is 02KM cells (MyoDER). In words: 02KM myogenic induction by E2 activation of MyoDER. In kind it is cell-based, porcine. The note with it: 10 μM E2, 2 d induction.
In a further data set the test system is piPSC-derived myotubes. In words: Calcium transient activity (Fluo-4 AM) in piPSC-derived myotubes. The class given is cell-based, porcine. The following applies: 10 mM caffeine; d6 myotubes; field of view. An excerpt: Spontaneous and Stimuli-Induced Calcium Transient Activity in piPSC-derived myotubes. To quantify contraction cycles, myotube cultures were stained with Fluo-4 AM calcium dye, washed, and image sequences were captured by confocal microscopy. Dynamic signaling events of an entire field of view (FOV) or single cells were traced and plotted over the imaging course. [s]=seconds.

Another data set has as its system murine C2C12 myoblast. In words: Terminal differentiation of C2C12 myoblasts scored by size and extent of myotube formation. In kind it is cell-based. The following applies: low-mitogen differentiation cultures (2% horse serum/DMEM).
The subject of data set [1] is 02K cell line. In words: Cell survival of differentiating 02K (phase contrast, cell adhesion, CPP32 cleavage, Annexin V). In kind it is cell-based, porcine. The following applies: SRM basal medium without hLIF, DOX, PD032591 and PD173074; N-2 and B-27. Here is the method:
Without being bound by theory or limited by any specific representative example, it was observed that simultaneous withdrawal of both DOX and the GSK3P inhibitor CHIR99021 from the culture medium supplemented with N-2 and B-27 serum replacements precipitates massive cell death of differentiating 02K parental line within 48 h hours. Withdrawal of DOX in the presence of CHIR99021 enabled survival of the differentiating 02K. Death by differentiating 02K cells in the absence of a GSK3P inhibitor and reciprocal survival in the presence thereof was confirmed by morphology, cell adhesion assay, cleaved caspase-3 accumulation, and Annexin V labeling. […] WNT signaling plays crucial roles in both mesoderm specification from the undifferentiated ground-state pluripotency, pre-myogenic enrichment from unpatterned mesoderm and terminal differentiation of committed myocytes both in vivo and in vitro. In agreement, extended culture of the 02K line in the absence of DOX, and in the presence of a GSK3P inhibitor, supported differentiation toward the pre-myogenic paraxial mesoderm, as evidenced by the expression of PAX3 and concomitant loss of POU5F1 and KLF4 expression.
CHIR99021 inhibition 1 cell death. […] 1. […]
An axis of apoptosis and differentiation is modulated by CHIR99021. […] TUBA is detected an internal protein loading control.

Another data set has as its system CTNNB1. In words: Western blot of CTNNB1 and p-CTNNB1 in differentiating 02K. The following applies: 24 h differentiation milieu transition. In kind it is cell-based, porcine. Here is the method:
Cultures were exposed to 50 nM Calyculin A and 30 μM MG-132 for 3 hours prior to harvest to stabilize detectable levels of p-CTNNB1 for comparative analysis.
(§1) CHIR99021 inhibition 1 cell death. […] 1. As CHIR99021 repressed cell death, supported differentiation toward paraxial mesoderm by the differentiating 02K cell line and enhanced terminal differentiation by the C2C12 cell line, precedent was established to retain the compound in all culture stages.
(§2) CHIR99021 stabilizes CTNNB1 and supports differentiation from the ground state. […] TUBA detected as an internal protein loading control. FIG. 13A indicates ratios of p-CTNNB1/CTNNB1 bands. FIG. 13B indicates ratios of CTNNB1/TUBA bands. […] TUBA detection is shown as an internal protein loading control.

The subject of data set [2] is 02K cell line. In words: Differentiation marker Western blot (PAX3, POU5F1, KLF4) in differentiating 02K. In kind it is cell-based, porcine. The following applies: CHIR99021 supplemented basal medium, absence of DOX.
Source text: Expression levels of pluripotency markers, POU5F1 and KLF4, and the pre-myogenic paraxial mesoderm marker PAX3 in 02K cultures differentiated from the ground state in the presence of CHIR99021.
as §1, §2

Method for 02KM cell line: Terminal Differentiation. […] N-2 and B-27 supplements were used exclusively as serum replacements. Cultures were differentiated for up to 6 d following under 20% O2 following induction regimens (FIG. 20A).
MyoDER was detected with an antibody raised against a MyoD peptide. […] Determinants of MYF5 activation: Western blot analyses. […] MYODER-modified piPSC were cultured 3 days in self-renewal or expansion milieu. […] TUBA is detected as an internal protein loading control.
Terminal Myogenesis of Lineage-Specified piPSC. […] DO and D6 cultures were stained for myosin heavy chain (MyHC) isoforms with a pan-MyHC monoclonal antibody, clone MF20. […] Right panel: myonuclei distribution by myotube ploidy by propidium iodide labeling and flow cytometry analysis. n=3 with standard deviation shown. […] MyoD (MYOD1), myogenin (MYOG) and desmin (DES) expression, dO-d8. TUBA is detected as an internal protein loading control. […] FIG. 20G: Transmission Electron Microscopy, d6 myotubes.
Method for 02KM cells (MyoDER): 02KM myogenic induction. 02KM cells were seeded onto culture dishes coated with poly-D lysine, murine laminin and [sequence] at a density of 4.1×10^3 cells/cm^2 and cultured under 5% O2 in self-renewal medium for 3 d.

With `Nc1ncn([C@@H]2O[C@H](CO)[C@@H](O)[C@H]2O)c(=O)n1` [5AC, 5-Aza-Cytidine], the highest dose tolerated in the data set with undifferentiated 02KM turned out to be 250 nM. For the same molecule, the “MYF5 expression in 02KM derived myocytes” value with 02KM cell line (5AC 72 hours preceding DOX withdrawal and 48 hours during E2 induction) is recorded as “MYF5 expression was enhanced”. The “myotube morphology during terminal differentiation” value with 02KM cell line (5AC during expansion and induction regimens) is “formed refractive, anisotropic myotubes”.
For the molecule `C[C@]12CC[C@@H]3c4ccc(O)cc4CC[C@H]3[C@@H]1CC[C@@H]2O` [E2, 17-β Estradiol], the “myogenic lineage specification (spindle-like morphology, MYOG, NCAM)” value in the data set with 02KM cells (MyoDER) is listed as “myogenic lineage specification following 2 d induction culture was confirmed”.
Consider `Cn1c(=O)c2c(ncn2C)n(C)c1=O` [caffeine], for which, in the data set with piPSC-derived myotubes, the calcium transient activation entry is recorded as “FOV calcium transient activation of d6 myotubes”.
For `Cc1c[nH]c(-c2cnc(NCCNc3ccc(C#N)cn3)nc2-c2ccc(Cl)cc2Cl)n1` [CHIR99021], the “terminal differentiation of C2C12 into multi-nucleated myotubes” value with murine C2C12 myoblast was “enhanced the terminal differentiation of the myogenic murine C2C12 cell line into multi-nucleated myotubes”. For the same molecule, the “cell survival during differentiation” value in the data set on 02K cell line [1] is on record as “supported both cell survival during differentiation”. Further, the “CTNNB1 stabilization and phosphorylation status” value with CTNNB1 was “stabilizes and modulates the phosphorylation status of the GSK3P substrate, CTNNB1”. Moreover, the “pre-myogenic paraxial mesoderm lineage specification (PAX3 expression)” value with 02K cell line [2] is “supported pre-myogenic paraxial mesoderm lineage specification of differentiating 02K”.

(Values after patent US20210171912A1, “METHOD FOR SCALABLE SKELETAL MUSCLE LINEAGE SPECIFICATION AND CULTIVATION” (Memphis Meats, Inc., priority 2013, published 2021).)
